From ChEMBL document CHEMBL1124141, “(+/-)-9-Amino-1,2,3,4-tetrahydroacridin-1-ol. A potential Alzheimer's disease therapeutic of low toxicity” (J Med Chem, 1988) come the findings set out here.

Data set [1] can be described thus: Acute toxicity in mice was determined after oral administration. Conditions: mouse, in vivo. Format: organism-based.
In another data set the target is T1, Acetylcholinesterase (Rattus norvegicus, UniProt P37136).
T1 sequence (P37136 whole entry): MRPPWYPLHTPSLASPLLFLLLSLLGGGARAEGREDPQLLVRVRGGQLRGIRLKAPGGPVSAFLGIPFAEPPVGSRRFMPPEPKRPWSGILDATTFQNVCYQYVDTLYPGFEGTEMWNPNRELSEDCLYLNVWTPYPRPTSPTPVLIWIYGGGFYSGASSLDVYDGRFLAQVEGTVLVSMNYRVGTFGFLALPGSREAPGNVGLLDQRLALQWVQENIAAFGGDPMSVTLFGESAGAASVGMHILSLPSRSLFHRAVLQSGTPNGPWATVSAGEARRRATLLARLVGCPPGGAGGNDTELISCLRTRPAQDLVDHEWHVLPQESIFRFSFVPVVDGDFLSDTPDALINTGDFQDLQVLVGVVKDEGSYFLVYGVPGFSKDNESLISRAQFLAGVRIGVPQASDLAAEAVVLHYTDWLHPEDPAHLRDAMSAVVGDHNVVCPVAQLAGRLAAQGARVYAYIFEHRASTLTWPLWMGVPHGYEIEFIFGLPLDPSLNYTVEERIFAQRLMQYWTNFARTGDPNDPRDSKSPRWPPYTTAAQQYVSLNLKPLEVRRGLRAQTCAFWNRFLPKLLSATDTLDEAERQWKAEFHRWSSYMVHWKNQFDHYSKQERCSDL
Put plainly: In vitro inhibitory activity against acetylcholinesterase using rat striatal preparations.

The next data set is filed under the species Mus musculus. Conditions: dose 0.63 mg/kg; route subcutaneous.

Description for Mus musculus: Reversal of scopolamine-induced memory impairment in mice, after subcutaneous administration of 0.63 mg/kg

Turning to `Nc1c2c(nc3ccccc13)CCCC2O.O=C(O)/C=C\C(=O)O` (stereo not drawn) [VELNACRINE MALEATE], the LD50 in data set [1] is 136 mg/kg. The same molecule displayed an IC50 at Acetylcholinesterase of 4.8 µM. For the same molecule, the Reversal in the data set filed under Mus musculus is 33%.

In general, LD50 refers to the dose expected to kill half of the subjects tested. Lower therefore signals greater toxicity. The IC50 is the point on the concentration scale where inhibition reaches its midpoint. A higher IC50 goes with a need for much substance.
